In ChEMBL document CHEMBL5465560, “Selectivity Literature for EUbOPEN Chemogenomic Library” (2024):
One block for each compound: values may come before it.

Tests used:
[1] = biological target: Mitogen-activated protein kinase kinase kinase 11 (Homo sapiens) (UniProt Q16584); assay: Selectivity interaction (Kinase panel (Eurofins)) EUB0001564a MAP3K11; conditions: at 1 µM
[2] = biological target: T1, Atypical kinase COQ8B, mitochondrial (Homo sapiens) (UniProt Q96D53); conditions: at 10 µM
T1 sequence (whole entry): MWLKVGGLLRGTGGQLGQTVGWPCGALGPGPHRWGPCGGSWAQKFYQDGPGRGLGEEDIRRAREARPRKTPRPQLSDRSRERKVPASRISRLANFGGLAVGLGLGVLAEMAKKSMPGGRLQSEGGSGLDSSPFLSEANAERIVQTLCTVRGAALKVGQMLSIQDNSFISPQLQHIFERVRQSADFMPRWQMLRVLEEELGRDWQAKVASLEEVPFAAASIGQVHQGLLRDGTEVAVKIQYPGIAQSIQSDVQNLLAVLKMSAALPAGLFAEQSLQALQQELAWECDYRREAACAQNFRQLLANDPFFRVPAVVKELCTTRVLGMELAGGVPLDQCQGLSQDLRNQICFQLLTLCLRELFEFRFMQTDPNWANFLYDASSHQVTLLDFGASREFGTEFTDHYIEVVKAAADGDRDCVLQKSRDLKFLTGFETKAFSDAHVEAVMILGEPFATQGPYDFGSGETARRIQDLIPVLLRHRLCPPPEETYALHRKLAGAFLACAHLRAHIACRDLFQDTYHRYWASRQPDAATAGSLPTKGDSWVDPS

[3] = biological target: Tyrosine-protein kinase JAK1 (Homo sapiens, UniProt P23458); assay: Selectivity interaction (ActivX KiNativ screen (kinase selectivity in THP-1 cell lysates)) EUB0000639a JAK1; format: subcellular; conditions: lysate, at 1 µM
[4] = biological target: T2, Dual specificity tyrosine-phosphorylation-regulated kinase 3 (Homo sapiens) (UniProt O43781); assay: Selectivity interaction (Kinase panel (Invitrogen)) EUB0000639a DYRK3; conditions: at 200 nM
T2 sequence (whole entry): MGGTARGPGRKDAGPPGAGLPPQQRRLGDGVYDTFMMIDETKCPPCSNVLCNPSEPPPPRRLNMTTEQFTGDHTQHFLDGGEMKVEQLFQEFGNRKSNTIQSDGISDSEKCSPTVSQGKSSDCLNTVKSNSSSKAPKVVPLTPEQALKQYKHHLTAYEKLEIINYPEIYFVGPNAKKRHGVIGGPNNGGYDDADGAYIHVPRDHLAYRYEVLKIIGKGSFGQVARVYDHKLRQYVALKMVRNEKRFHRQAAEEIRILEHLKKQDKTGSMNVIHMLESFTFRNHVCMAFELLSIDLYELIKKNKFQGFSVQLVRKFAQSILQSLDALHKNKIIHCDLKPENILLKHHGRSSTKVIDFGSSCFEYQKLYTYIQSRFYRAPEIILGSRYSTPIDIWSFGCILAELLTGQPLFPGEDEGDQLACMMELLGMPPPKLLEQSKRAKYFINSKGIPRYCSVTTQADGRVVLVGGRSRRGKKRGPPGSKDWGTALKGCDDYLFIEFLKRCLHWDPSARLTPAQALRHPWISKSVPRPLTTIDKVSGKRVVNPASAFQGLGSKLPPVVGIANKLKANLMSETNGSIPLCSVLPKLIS

[5] = biological target: T3, Mitogen-activated protein kinase 15 (Homo sapiens) (UniProt Q8TD08); assay: Selectivity interaction (ProQinase) EUB0000171b MAPK15
T3 sequence (whole entry): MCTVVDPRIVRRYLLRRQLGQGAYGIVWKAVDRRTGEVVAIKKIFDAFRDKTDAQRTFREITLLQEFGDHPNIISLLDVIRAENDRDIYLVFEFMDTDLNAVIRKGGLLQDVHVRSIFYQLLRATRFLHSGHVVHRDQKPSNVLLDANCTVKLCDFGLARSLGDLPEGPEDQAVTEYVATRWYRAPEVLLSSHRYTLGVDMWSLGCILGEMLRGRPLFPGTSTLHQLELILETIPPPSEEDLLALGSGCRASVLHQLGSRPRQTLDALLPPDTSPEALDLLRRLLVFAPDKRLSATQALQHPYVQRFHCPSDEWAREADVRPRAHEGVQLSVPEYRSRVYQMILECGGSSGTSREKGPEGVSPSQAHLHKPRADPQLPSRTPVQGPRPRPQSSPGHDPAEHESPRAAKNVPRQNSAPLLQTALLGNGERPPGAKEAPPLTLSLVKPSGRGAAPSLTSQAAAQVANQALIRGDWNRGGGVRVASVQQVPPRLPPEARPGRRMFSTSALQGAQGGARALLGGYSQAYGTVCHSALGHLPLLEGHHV

[6] = biological target: Tyrosine-protein kinase JAK2 (Homo sapiens, UniProt O60674); assay: Selectivity interaction (NanoBRET assay (HEK293T cells)) EUB0001559a JAK2; format: cell-based, HEK-293T
[7] = biological target: Serine/threonine-protein kinase PAK 2 (Homo sapiens) (UniProt Q13177); assay: Selectivity interaction (Ambit KINOMEscan and KiNATiv profiling in Jurkat cells) EUB0000090b PAK2; format: cell-based; conditions: at 1 µM
[8] = biological target: T4, Serine/threonine-protein kinase TAO3 (Homo sapiens) (UniProt Q9H2K8); assay: Selectivity interaction (KinomeScan (DiscoverX)) EUB0000045b TAOK3
T4 sequence (whole entry): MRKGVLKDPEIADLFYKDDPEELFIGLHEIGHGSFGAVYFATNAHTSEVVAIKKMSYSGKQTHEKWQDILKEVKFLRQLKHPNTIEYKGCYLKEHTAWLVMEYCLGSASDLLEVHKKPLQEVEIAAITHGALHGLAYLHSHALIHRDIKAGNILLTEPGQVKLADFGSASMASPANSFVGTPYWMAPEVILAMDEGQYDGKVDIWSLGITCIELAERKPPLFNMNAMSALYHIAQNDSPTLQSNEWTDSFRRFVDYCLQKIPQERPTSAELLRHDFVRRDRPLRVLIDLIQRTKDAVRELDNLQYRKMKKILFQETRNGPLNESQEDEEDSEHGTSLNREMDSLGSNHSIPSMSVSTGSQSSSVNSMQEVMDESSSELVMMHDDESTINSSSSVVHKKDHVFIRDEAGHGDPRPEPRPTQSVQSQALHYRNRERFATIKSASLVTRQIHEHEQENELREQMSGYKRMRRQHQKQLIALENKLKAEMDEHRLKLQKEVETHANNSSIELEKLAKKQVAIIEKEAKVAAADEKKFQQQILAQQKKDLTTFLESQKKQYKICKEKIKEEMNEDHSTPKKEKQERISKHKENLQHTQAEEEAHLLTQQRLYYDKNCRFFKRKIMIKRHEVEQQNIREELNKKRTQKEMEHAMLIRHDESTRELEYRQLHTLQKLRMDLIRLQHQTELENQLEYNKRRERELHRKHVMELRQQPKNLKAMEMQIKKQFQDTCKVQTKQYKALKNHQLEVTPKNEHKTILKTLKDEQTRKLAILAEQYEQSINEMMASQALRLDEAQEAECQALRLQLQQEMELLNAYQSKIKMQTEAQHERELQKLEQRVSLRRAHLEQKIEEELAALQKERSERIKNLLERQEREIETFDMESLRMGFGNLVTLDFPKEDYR

Sequence of Tyrosine-protein kinase JAK2 (O60674 whole entry): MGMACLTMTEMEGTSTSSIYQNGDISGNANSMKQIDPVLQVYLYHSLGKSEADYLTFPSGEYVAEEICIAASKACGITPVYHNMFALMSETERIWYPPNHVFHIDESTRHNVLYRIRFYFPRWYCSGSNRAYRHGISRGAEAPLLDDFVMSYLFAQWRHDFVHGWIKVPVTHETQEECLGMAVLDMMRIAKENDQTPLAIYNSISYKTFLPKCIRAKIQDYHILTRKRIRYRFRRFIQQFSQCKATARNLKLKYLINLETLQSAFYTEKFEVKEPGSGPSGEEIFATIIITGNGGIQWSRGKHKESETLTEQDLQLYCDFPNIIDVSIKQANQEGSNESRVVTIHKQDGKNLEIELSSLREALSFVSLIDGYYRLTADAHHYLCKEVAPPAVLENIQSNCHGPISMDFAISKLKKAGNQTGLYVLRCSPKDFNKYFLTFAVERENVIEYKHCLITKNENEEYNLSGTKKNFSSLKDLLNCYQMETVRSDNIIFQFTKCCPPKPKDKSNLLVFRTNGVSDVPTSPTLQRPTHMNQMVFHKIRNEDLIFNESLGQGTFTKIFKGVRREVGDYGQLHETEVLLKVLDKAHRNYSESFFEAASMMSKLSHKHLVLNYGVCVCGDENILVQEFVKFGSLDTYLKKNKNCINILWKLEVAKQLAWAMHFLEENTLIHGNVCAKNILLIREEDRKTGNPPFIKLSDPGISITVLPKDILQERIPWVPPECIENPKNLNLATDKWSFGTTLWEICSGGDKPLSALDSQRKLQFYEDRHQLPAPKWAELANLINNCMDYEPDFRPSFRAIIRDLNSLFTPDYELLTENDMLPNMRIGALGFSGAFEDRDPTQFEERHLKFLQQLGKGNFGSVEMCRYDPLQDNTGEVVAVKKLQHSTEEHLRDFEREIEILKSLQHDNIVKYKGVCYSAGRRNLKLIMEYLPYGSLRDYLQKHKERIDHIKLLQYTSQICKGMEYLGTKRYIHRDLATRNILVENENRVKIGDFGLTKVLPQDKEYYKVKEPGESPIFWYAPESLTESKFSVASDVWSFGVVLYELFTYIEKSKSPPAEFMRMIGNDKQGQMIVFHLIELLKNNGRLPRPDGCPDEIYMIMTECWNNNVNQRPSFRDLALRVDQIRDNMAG
Sequence of Tyrosine-protein kinase JAK1 (P23458 whole entry): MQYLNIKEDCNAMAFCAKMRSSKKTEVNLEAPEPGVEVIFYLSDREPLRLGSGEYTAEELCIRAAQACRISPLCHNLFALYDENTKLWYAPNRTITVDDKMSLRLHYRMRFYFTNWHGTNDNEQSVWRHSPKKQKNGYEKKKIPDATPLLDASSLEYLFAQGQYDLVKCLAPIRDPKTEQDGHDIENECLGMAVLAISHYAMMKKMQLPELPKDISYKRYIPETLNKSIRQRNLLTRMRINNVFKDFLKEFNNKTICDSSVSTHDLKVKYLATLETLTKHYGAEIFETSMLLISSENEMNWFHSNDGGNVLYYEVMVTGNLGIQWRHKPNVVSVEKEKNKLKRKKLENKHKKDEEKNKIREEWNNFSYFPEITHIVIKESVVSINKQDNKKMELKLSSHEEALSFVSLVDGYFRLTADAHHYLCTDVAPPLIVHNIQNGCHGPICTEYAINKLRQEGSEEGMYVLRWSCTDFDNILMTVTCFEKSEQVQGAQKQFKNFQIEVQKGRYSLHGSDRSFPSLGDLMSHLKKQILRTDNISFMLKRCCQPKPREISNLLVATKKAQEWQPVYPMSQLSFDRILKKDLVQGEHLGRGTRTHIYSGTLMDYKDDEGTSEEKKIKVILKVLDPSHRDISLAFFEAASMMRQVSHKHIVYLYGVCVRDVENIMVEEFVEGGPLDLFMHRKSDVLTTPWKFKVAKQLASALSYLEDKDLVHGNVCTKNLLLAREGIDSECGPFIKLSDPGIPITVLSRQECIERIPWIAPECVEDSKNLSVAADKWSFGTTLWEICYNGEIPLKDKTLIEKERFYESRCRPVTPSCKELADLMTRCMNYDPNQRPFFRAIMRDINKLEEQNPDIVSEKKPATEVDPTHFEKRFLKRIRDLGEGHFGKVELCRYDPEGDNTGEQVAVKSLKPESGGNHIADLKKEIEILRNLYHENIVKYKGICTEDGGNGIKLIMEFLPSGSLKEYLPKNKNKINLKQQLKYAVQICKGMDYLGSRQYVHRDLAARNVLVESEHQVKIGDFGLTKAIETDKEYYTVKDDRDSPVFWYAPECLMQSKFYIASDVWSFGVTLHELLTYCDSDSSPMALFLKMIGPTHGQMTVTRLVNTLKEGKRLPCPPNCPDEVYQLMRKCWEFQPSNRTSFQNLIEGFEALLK
Sequence of Mitogen-activated protein kinase kinase kinase 11 (Homo sapiens) (Q16584 whole entry, looked up): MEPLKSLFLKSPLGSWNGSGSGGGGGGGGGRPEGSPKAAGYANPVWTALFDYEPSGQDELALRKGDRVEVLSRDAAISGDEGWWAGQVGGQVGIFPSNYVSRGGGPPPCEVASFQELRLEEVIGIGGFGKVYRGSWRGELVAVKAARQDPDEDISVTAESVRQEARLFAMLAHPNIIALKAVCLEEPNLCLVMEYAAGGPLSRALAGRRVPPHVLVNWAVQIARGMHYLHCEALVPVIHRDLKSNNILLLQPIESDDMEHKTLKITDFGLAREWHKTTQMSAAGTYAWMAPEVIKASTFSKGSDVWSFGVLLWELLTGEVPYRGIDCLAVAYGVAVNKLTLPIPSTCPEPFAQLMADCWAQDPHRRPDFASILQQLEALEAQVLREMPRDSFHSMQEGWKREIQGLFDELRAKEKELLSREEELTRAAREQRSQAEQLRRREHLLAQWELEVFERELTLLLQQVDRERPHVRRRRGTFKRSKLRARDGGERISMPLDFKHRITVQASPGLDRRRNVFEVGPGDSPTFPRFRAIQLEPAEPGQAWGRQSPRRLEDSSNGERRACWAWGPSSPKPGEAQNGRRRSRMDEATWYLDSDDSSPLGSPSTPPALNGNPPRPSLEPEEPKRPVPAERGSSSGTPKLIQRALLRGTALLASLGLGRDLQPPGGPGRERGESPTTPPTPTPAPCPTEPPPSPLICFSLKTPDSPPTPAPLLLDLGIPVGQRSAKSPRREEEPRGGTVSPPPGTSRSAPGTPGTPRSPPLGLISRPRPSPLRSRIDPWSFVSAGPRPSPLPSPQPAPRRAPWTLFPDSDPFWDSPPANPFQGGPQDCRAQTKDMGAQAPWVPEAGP
Sequence of Serine/threonine-protein kinase PAK 2 (Homo sapiens) (Q13177 whole entry): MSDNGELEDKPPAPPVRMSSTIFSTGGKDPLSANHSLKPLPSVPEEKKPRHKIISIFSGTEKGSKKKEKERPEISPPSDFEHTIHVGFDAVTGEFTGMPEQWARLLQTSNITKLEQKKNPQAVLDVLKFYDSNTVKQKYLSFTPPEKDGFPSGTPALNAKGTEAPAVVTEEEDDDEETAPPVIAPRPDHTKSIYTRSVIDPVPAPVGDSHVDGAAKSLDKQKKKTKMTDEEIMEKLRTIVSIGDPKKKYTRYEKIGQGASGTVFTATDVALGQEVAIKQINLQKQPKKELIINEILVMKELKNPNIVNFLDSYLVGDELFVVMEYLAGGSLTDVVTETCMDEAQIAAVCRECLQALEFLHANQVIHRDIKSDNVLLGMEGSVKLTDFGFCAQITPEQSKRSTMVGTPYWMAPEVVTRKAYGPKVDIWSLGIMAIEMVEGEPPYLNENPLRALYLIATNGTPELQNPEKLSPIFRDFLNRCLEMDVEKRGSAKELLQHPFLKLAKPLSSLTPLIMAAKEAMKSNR

Compound: C=CC(=O)Nc1cccc(C(=O)Nc2ccc(Nc3cc(-c4[nH]c(SC)nc4C)ccn3)cc2)c1
% of control ([5]; at 1 µM): 66%
% of control ([5]; at 5 µM): 31%

Compound: CN(C)C/C=C/C(=O)Nc1ccc(C(=O)N2CCCC(Nc3ncc(Cl)c(-c4c[nH]c5ccccc45)n3)C2)cc1 (stereo not given)
% of control [7]: 84%

Compound: C=CC(=O)Nc1cc(-n2c(=O)ccc3cnc4ccc(-c5ccc(NS(C)(=O)=O)cc5)cc4c32)ccc1C
% of control ([8]; at 1 µM): 100%
% of control ([8]; at 10 µM): 100%

More lines, now with the values ahead:

% of inhibition [1]: 21.1%
Compound: CC[C@@H](Nc1c(C#N)c(-c2ccc(-c3cccc(C)c3F)cc2)nc2cnccc12)C(=O)O [BAY-091]

% of control [2]: 100%
Compound: CCN(CC)CCCCNc1ncc2cc(-c3cc(OC)cc(OC)c3)c(NC(=O)NC(C)(C)C)nc2n1

% of inhibition [3]: 3.8%
% of inhibition [4]: 6.43%
Compound: CC[C@@H]1[C@H](F)C(=O)N[C@@H]1COc1nccc2cc(C(N)=O)c(OC)cc12 [ZIMLOVISERTIB]

EC50 [6]: > 50 µM
Compound: CN(C(=O)c1cnn2cccnc12)c1cc2c(cc1N1CCOCC1)C(=O)N(C[C@@H](F)C(C)(C)O)C2
